From patent US11638427B2, “Methods and compositions for altering secondary metabolites in plants” (Impello Biosciences, Inc, priority 2020, dated 2023)
Where “and” joins values, the source holds several entries; their conditions need not be identical. Equal entries are not always repeated.

Test system: CBDRx Cherry hemp clones
Test: Foliar spray of MS, MDJ and MS+MDJ on hemp clones: biomass, cannabinoid and terpene analysis
Format: in vivo, Cannabis spp.
Set-up: CBDA / CBD / THCA / Total CBG / Total cannabinoids: unit not given here
Conditions: for plants died before the end of the experiment: four plants per treatment group
Procedure: Methyl salicylate (MS) is an antagonistic compound to the jasmonates. To investigate the effect of MS alone and in conjunction with MDJ, MS (CAS No.: 119-36-8), MDJ, and the combination (MS+MDJ) were applied by foliar spray to CBDRx Cherry hemp clones once per week during both vegetative and flowering phases. Plants were transplanted into 1-gallon pots with Red's soil and put into vegetative light cycle (18L/6D). […] Plants were grown under a total of 12 Boost (Thrive Agritech, NY) 130-watt LED lights set to 18L: 6D photoperiod during the vegetative phase (2 weeks) and this was followed by a 12L: 12D photoperiod during the flowering phase (7 weeks), using the same lighting fixtures. Throughout the nine weeks, all plants were watered when needed with Jack's nutrients.
MS or MDJ treatments were applied at the following concentrations: [1 mM], [4.25 mM], [7.5 mM] and [10 mM]. Each concentration was prepared from a one molar stock solution diluted with RO water and TWEEN®-20 (1M stock) was added. Each plant was sprayed till dripping, which was approximately 50-75 ml. To apply the combination of the two biochemicals, MS and MDJ were sprayed separately but simultaneously, to ensure each compound was applied evenly onto the plant. Each compound was applied using a SPRAYMASTER Chemical Sprayer (King of Prussia, Pa.).
Plants were harvested two months after transplant. After harvesting, plants were air dried at room temperature for two weeks. Once plants were sufficiently dry, above ground dry weights were recorded and dried flower samples were collected and sent to a third-party lab for terpene and cannabinoid analysis. Two plants (#3 and #4) in treatment group MDJ [7.5] mM, two plants (#3 and #4) in MS [4.25] mM, one plant (#4) in MS [7.5], and one plant (#4) in MDJ [10] died before the end of the experiment.

[1] = 1 mM foliar spray, Avg. of group
[2] = 1 mM foliar spray, individual plant
[3] = 4.25 mM foliar spray, Avg. of group
[4] = 4.25 mM foliar spray, individual plant
[5] = 7.5 mM foliar spray, Avg. of group
[6] = 7.5 mM foliar spray, individual plant
[7] = 10 mM foliar spray, Avg. of group
[8] = 10 mM foliar spray, individual plant

CCCCCC1C(=O)CCC1CC(=O)OC (centres unmarked) [MDJ, methyl dihydrojasmonate]
Alpha-bisabolol [1]: 0.109 % wt/wt
Alpha-humulene [1]: 0.08163 % wt/wt
Beta-caryophyllene [1]: 0.2027 % wt/wt
CBCA [1]: 0.64
CBD [1]: 0.105
CBDA [1]: 12.99
CBGA [1]: 0.3425
Limonene [1]: 0.1362 % wt/wt
THCA [1]: 0.565
Total CBD [1]: 11.4975
Total CBG [1]: 4.2075
Total cannabinoids [1]: 14.6425
Total d9THC [1]: 0.495
alpha-pinene [1]: 0.02277 % wt/wt
beta-myrcene [1]: 1.04 % wt/wt
beta-pinene [1]: 0.0188 % wt/wt
total terpenes [1]: 1.7075 % wt/wt
Alpha-bisabolol [2]: 0.1238 % wt/wt and 0.1069 % wt/wt and 0.094 % wt/wt and 0.1113 % wt/wt
Alpha-humulene [2]: 0.0944 % wt/wt and 0.0784 % wt/wt and 0.0831 % wt/wt and 0.0706 % wt/wt
Beta-caryophyllene [2]: 0.2352 % wt/wt and 0.2003 % wt/wt and 0.2076 % wt/wt and 0.1676 % wt/wt
CBCA [2]: 0.57 and 0.71 and 0.64 (2×)
CBD [2]: 0.16 and 0 and 0.12 and 0.14
CBDA [2]: 11.86 and 14.25 and 13.12 and 12.73
CBGA [2]: 0.28 and 0.44 and 0.34 and 0.31
Limonene [2]: 0.1352 % wt/wt and 0.1309 % wt/wt and 0.1572 % wt/wt and 0.1215 % wt/wt
THCA [2]: 0.52 and 0.63 and 0.57 and 0.54
Total CBD [2]: 10.55 and 12.5 and 11.63 and 11.31
Total CBG [2]: 0.24 and 16.03 and 0.29 and 0.27
Total cannabinoids [2]: 13.39 and 16.03 and 14.79 and 14.36
Total d9THC [2]: 0.45 and 0.55 and 0.5 and 0.48
alpha-pinene [2]: 0.0293 % wt/wt and 0.0283 % wt/wt and 0.0335 % wt/wt and 0 % wt/wt
beta-myrcene [2]: 0.9825 % wt/wt and 1.0146 % wt/wt and 1.2146 % wt/wt and 0.9497 % wt/wt
beta-pinene [2]: 0.0269 % wt/wt and 0.0238 % wt/wt and 0.0245 % wt/wt and 0 % wt/wt
total terpenes [2]: 1.73 % wt/wt and 1.67 % wt/wt and 1.92 % wt/wt and 1.51 % wt/wt
Alpha-bisabolol [3]: 0.1242 % wt/wt
Alpha-humulene [3]: 0.0859 % wt/wt
Beta-caryophyllene [3]: 0.2106 % wt/wt
CBCA [3]: 0.6275
CBD [3]: 0.29
CBDA [3]: 12.9825
CBGA [3]: 0.2975
Limonene [3]: 0.1168 % wt/wt
THCA [3]: 0.565
Total CBD [3]: 11.6725
Total CBG [3]: 0.2625
Total cannabinoids [3]: 14.7625
Total d9THC [3]: 0.495
alpha-pinene [3]: 0.0132 % wt/wt
beta-myrcene [3]: 0.9189 % wt/wt
beta-pinene [3]: 0.02055 % wt/wt
total terpenes [3]: 1.5875 % wt/wt
Alpha-bisabolol [4]: 0.1239 % wt/wt and 0.1229 % wt/wt and 0.1255 % wt/wt and 0.1245 % wt/wt
Alpha-humulene [4]: 0.0851 % wt/wt and 0.0781 % wt/wt and 0.0861 % wt/wt and 0.0943 % wt/wt
Beta-caryophyllene [4]: 0.2071 % wt/wt and 0.1897 % wt/wt and 0.208 % wt/wt and 0.2377 % wt/wt
CBCA [4]: 0.63 (2×) and 0.65 and 0.6
CBD [4]: 0.28 and 0.36 and 0.38 and 0.14
CBDA [4]: 13.17 (2×) and 12.87 and 12.72
CBGA [4]: 0.33 and 0.31 and 0.26 and 0.29
Limonene [4]: 0.1049 % wt/wt and 0.1307 % wt/wt and 0.0983 % wt/wt and 0.1334 % wt/wt
THCA [4]: 0.57 (2×) and 0.56 (2×)
Total CBD [4]: 11.83 and 11.9 and 11.67 and 11.29
Total CBG [4]: 0.29 and 0.27 and 0.23 and 0.26
Total cannabinoids [4]: 14.98 and 15.06 and 14.7 and 14.31
Total d9THC [4]: 0.5 (2×) and 0.49 (2×)
alpha-pinene [4]: 0 % wt/wt (2×) and 0.0253 % wt/wt and 0.0275 % wt/wt
beta-myrcene [4]: 0.8032 % wt/wt and 1.0724 % wt/wt and 0.7447 % wt/wt and 1.0552 % wt/wt
beta-pinene [4]: 0.0189 % wt/wt and 0.021 % wt/wt and 0.019 % wt/wt and 0.0233 % wt/wt
total terpenes [4]: 1.44 % wt/wt and 1.73 % wt/wt and 1.38 % wt/wt and 1.8 % wt/wt
Alpha-bisabolol [5]: 0.112 % wt/wt
Alpha-humulene [5]: 0.08165 % wt/wt
Beta-caryophyllene [5]: 0.2043 % wt/wt
CBCA [5]: 0.675
CBD [5]: 0.125
CBDA [5]: 13.16
CBGA [5]: 0.365
Limonene [5]: 0.09595 % wt/wt
THCA [5]: 0.575
Total CBD [5]: 11.665
Total CBG [5]: 0.315
Total cannabinoids [5]: 14.9
Total d9THC [5]: 0.505
alpha-pinene [5]: 0 % wt/wt
beta-myrcene [5]: 0.7442 % wt/wt
beta-pinene [5]: 0.01015 % wt/wt
total terpenes [5]: 1.345 % wt/wt
plants died before the end of the experiment (7.5 mM foliar spray): Two plants
Alpha-bisabolol [6]: 0.1165 % wt/wt and 0.1076 % wt/wt
Alpha-humulene [6]: 0.0802 % wt/wt and 0.0831 % wt/wt
Beta-caryophyllene [6]: 0.2 % wt/wt and 0.2086 % wt/wt
CBCA [6]: 0.63 and 0.72
CBD [6]: 0.14 and 0.11
CBDA [6]: 12.43 and 13.89
CBGA [6]: 0.36 and 0.37
Limonene [6]: 0.0965 % wt/wt and 0.0954 % wt/wt
THCA [6]: 0.53 and 0.62
Total CBD [6]: 11.04 and 12.29
Total CBG [6]: 0.31 and 0.32
Total cannabinoids [6]: 14.09 and 15.71
Total d9THC [6]: 0.47 and 0.54
alpha-pinene [6]: 0 % wt/wt
beta-myrcene [6]: 0.7818 % wt/wt and 0.7066 % wt/wt
beta-pinene [6]: 0.0203 % wt/wt and 0 % wt/wt
total terpenes [6]: 1.39 % wt/wt and 1.3 % wt/wt
Alpha-bisabolol [7]: 1.477 % wt/wt
Alpha-humulene [7]: 0.1323 % wt/wt
Beta-caryophyllene [7]: 0.0874 % wt/wt
CBCA [7]: 0.643
CBD [7]: 0.24
CBDA [7]: 12.936
CBGA [7]: 0.33
Limonene [7]: 0.2188 % wt/wt
THCA [7]: 0.56
Total CBD [7]: 11.58
Total CBG [7]: 0.29
Total cannabinoids [7]: 14.71
Total d9THC [7]: 0.493
alpha-pinene [7]: 0.023 % wt/wt
beta-myrcene [7]: 0.1067 % wt/wt
beta-pinene [7]: 0.8058 % wt/wt
total terpenes [7]: 0.023 % wt/wt
plants died before the end of the experiment (10 mM foliar spray): one plant
Alpha-bisabolol [8]: 0.1507 % wt/wt and 0.143 % wt/wt and 0.1033 % wt/wt
Alpha-humulene [8]: 0.0955 % wt/wt and 0.0751 % wt/wt and 0.0916 % wt/wt
Beta-caryophyllene [8]: 0.2372 % wt/wt and 0.1978 % wt/wt and 0.2214 % wt/wt
CBCA [8]: 0.62 and 0.71 and 0.6
CBD [8]: 0.18 and 0.34 and 0.2
CBDA [8]: 12.76 and 14.33 and 11.72
CBGA [8]: 0.26 and 0.41 and 0.32
Limonene [8]: 0.1165 % wt/wt and 0.0884 % wt/wt and 0.1154 % wt/wt
THCA [8]: 0.56 and 0.62 and 0.5
Total CBD [8]: 11.36 and 12.9 and 10.48
Total CBG [8]: 0.23 and 0.36 and 0.28
Total cannabinoids [8]: 14.38 and 16.41 and 13.34
Total d9THC [8]: 0.49 and 0.55 and 0.44
alpha-pinene [8]: 0 % wt/wt
beta-myrcene [8]: 0.8838 % wt/wt and 0.6844 % wt/wt and 0.8492 % wt/wt
beta-pinene [8]: 0.0249 % wt/wt and 0.0217 % wt/wt and 0.0224 % wt/wt
total terpenes [8]: 1.62 % wt/wt and 1.3 % wt/wt and 1.51 % wt/wt
plant growth effects on clonal hemp plants in the vegetative stage (all concentrations (1-10 mM), compared to all tested concentrations of MS): beneficial plant growth effects
total terpene content (application of 1 mM or 4.25 mM): increased
